Data as given in patent US20110152183A1, “DERIVATISED HYBRID PEPTIDES OF AMYLIN AND SALMON CALCITONIN” (Novo Nordisk A/S, priority 2008, published 2011).
Peptide text beside a SMILES is read from it.

Biological target: T1, Amylin 3(a) receptor (human calcitonin receptor (CTa) + RAMP-3) (Homo sapiens, UniProt O60896+P30988)
T1 construct: expressed in transfected cells; host or cells: BHK570 (baby hamster kidney) cells, stably transfected, with a CRE-luciferase reporter
Assay: Amylin luciferase assay (II), CRE luciferase reporter in BHK cells
Assay type: cell-based
Settings: BHK Amylin 3(a)//CRE-luc cells, 4 hours incubation
From the text: It has previously been published (Poyner D R et al 2002, Pharmacological Reviews 54 (2) 233-246) that activation of Amylin receptors (coexpression of Calcitonin receptor and receptor activity modifying peptides RAMPs) by Amylin leads to an increase in the intracellular concentration of cAMP. Consequently, transcription is activated at promotors containing multiple copies of the cAMP response element (CRE). It is thus possible to measure Amylin activity by use of a CRE luciferase reporter gene introduced into BHK cells also expressing an Amylin receptor.
2. Construction of An Amylin 3(a)/CRE-Luc Cell Line
A BHK570 cell line stably transfected with the human calcitonin receptor (CTa) and a CRE-responsive luciferase reportergene. The cell line was further transfected with RAMP-3, using standard methods. This turns the Calcitonin receptor into an Amylin 3(a) receptor. Methotrexate, Neomycin, and Hygromycin are selection markers for luciferase, the Calcitonin receptor, and RAMP-3, respectively.
3. Amylin Luciferase Assay
To perform activity assays, BHK Amylin 3(a)//CRE-luc cells were seeded in white 96 well culture plates at a density of about 20.000 cells/well. […] Finally, luminescence was measured on a TopCounter (Packard) in SPC (single photon counting) mode.

T1 sequence (O60896 24-148): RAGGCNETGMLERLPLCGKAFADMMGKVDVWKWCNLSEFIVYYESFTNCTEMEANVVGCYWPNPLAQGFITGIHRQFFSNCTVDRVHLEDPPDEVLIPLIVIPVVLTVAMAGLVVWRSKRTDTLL
T1 sequence (P30988 25-474): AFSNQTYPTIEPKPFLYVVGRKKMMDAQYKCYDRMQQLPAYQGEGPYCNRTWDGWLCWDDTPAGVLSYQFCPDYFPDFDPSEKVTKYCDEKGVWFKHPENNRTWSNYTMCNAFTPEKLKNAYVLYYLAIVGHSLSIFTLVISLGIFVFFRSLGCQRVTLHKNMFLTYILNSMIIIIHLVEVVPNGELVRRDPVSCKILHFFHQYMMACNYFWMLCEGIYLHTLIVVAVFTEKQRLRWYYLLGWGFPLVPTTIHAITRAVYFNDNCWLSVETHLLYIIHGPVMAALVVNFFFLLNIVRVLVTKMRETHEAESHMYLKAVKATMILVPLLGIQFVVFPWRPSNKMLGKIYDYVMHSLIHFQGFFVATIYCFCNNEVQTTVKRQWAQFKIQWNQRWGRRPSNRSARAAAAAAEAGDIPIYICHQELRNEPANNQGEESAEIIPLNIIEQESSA

EC50: 3 pM
Structure (SMILES): CC(C)C[C@H](NC(=O)[C@H](C)NC(=O)[C@@H]1CSSC[C@H](NC(=O)[C@@H](N)CCCCN)C(=O)N[C@@H](CC(N)=O)C(=O)N[C@@H]([C@@H](C)O)C(=O)N[C@@H](C)C(=O)N[C@@H]([C@@H](C)O)C(=O)N1)C(=O)NCC(=O)N[C@@H](CCCNC(=N)N)C(=O)N[C@@H](CC(C)C)C(=O)N[C@@H](CO)C(=O)N[C@@H](CCC(N)=O)C(=O)N[C@@H](CCC(=O)O)C(=O)N[C@@H](CC(C)C)C(=O)N[C@@H](Cc1c[nH]cn1)C(=O)N[C@@H](CCCNC(=N)N)C(=O)N[C@@H](CC(C)C)C(=O)N[C@@H](CCC(N)=O)C(=O)N[C@H](C(=O)N[C@@H](Cc1ccc(O)cc1)C(=O)N1CCC[C@H]1C(=O)N[C@@H](CCCNC(=N)N)C(=O)N[C@H](C(=O)N[C@@H](CC(N)=O)C(=O)N[C@H](C(=O)NCC(=O)N[C@@H](CO)C(=O)N[C@@H](CC(N)=O)C(=O)N[C@H](C(=O)N[C@@H](Cc1ccc(O)cc1)C(N)=O)[C@@H](C)O)[C@@H](C)O)[C@@H](C)O)[C@@H](C)O [Example 4, Amylin (1-8)-[Arg11,Arg18]sCT (9-27)-amylin (33-37)] (HELM PEPTIDE1{K.C.N.T.A.T.C.A.L.G.R.L.S.Q.E.L.H.R.L.Q.T.Y.P.R.T.N.T.G.S.N.T.Y.[am]}$PEPTIDE1,PEPTIDE1,2:R3-7:R3$$$V2.0; N-terminus assumed)
